Results on 8 compounds are retold here after patent publication EP4592286A1, “MACROCYCLIC NITROGEN-CONTAINING CROWN ETHER COMPOUND AND USE THEREOF AS PROTEIN KINASE INHIBITOR” (Artivila Biopharma, priority 2022, dated 2024).

Common to all, as to assay type: biochemical
The target in test [1] is T1, LRRK2 (Homo sapiens, UniProt Q5S007). The test is described as follows: experiment of inhibiting LRRK2 kinase activity (ADP-Glo method). The conditions noted are these: Table 4. The method, then:
The inhibitory effect of the compounds on the activity of LRRK2 kinase was detected by ADP-Glo method. The diluted solutions of the compounds were transfered to a 384-well plate (784075, Greiner), the plate was sealed and centrifuged at a speed of 1000 g for 1 minute. A kinase solution at 2-fold final concentration was prepared with 1×kinase buffer, 2.5 µl of the kinase solution with 2-fold final concentration was added to the wells, the plate was centrifuged at 1000 g for 30 seconds, and left at room temperature for 10 minutes. A mixed solution of ATP and kinase substrate at 2-fold final concentration was prepared with 1×kinase buffer, and 2.5 µL of mixed solution of ATP and substrate at 2-fold final concentration was added to start the reaction. The plate was centrifuged at 1000 g for 30 seconds, sealed and left at room temperature for 2 hours. 4 µL of ADP-Glo reagent was added and incubated at room temperature for 40 minutes; 8 µL kinase detection reagent was added and incubated at room temperature for another 40 minutes. The luminescence signal value was detected on Envision 2104 microplate reader. The conversion inhibition rate%=100-(compound signal value-positive control signal value)/(blank control signal value-positive control signal value)×100.
The IC50 was calculated with GraphPad 6.0 and the dose-responsive curve of the compounds was plotted as follows: y=Bottom+(Top-Bottom)/(1+10^((logic50-x)×hillslope)), where x was logarithm of inhibitor concentration; and y was % inhibition rate.

In the next test the target is JAK1 (Homo sapiens, UniProt P23458). The test is described as follows: experiment of inhibiting kinase activity (Caliper mobility shift assay), JAK1. The note with it: at 100 nM; read-out: inhibition rate JAK1. In short, it runs like this:
(§1)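 Mobility-shift readout of substrate conversion; % inhibition normalized to uninhibited-enzyme wells (0%) and buffer-only background wells. Dosing: single points at 10 and 100 nM, or 3-fold series from 10 µM (10 conc.), replicates. Kinase + compound 10 min RT, then ATP/substrate.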

The target in the next test is JAK2 (Homo sapiens, UniProt O60674). In words: experiment of inhibiting kinase activity (Caliper mobility shift assay), JAK2. The conditions noted are these: read-out: inhibition rate JAK2. In short, it runs like this: as §1
The next test concerns the target T2, JAK3 (Homo sapiens, UniProt P52333).
T2 sequence (P52333 1-1124): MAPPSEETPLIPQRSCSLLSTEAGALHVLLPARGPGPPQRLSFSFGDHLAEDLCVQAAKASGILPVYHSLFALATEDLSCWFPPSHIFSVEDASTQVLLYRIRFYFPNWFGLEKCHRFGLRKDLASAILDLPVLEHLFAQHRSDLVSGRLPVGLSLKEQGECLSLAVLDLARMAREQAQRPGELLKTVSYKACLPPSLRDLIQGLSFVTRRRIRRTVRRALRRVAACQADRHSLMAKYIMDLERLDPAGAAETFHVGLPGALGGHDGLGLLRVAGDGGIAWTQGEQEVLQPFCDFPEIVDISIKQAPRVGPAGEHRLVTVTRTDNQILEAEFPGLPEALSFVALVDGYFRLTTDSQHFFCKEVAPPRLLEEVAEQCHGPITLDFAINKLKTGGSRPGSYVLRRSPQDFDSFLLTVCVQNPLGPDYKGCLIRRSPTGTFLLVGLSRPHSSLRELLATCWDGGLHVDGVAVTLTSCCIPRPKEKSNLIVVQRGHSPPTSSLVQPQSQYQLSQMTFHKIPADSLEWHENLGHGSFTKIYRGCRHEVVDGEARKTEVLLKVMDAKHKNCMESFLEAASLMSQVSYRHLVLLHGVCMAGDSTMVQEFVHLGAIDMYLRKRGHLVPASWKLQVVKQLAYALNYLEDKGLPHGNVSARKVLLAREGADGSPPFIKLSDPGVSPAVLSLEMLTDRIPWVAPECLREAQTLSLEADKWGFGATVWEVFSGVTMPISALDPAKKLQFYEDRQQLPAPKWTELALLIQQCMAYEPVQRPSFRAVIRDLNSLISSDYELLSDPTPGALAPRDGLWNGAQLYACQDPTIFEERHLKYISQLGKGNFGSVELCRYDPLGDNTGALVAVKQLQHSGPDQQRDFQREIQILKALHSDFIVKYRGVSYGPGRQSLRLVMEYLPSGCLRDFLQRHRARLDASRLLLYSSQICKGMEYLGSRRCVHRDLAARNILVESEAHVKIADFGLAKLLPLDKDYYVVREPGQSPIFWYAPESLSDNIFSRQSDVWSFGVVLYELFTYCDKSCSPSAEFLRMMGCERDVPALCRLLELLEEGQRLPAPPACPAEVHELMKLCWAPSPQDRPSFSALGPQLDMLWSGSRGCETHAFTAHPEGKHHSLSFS
The test is described as follows: experiment of inhibiting kinase activity (Caliper mobility shift assay), JAK3. The note with it: read-out: inhibition rate JAK3. In short, it runs like this:
as §1

For a further test, the target named is TYK2 (Homo sapiens, UniProt P29597). In words: experiment of inhibiting kinase activity, TYK2. The note with it: at 100 nM; read-out: inhibition rate TYK2. On the procedure: (§2) The inhibition rates of tested compounds on JAK1, JAK2, JAK3, TYK2, CDK7, CDK9, EGFR (T790M) and LRRK2 kinases were measured. The test concentrations of the compounds were 10 nM and 100 nM, and the detection was performed by replicate wells. Alternatively, compounds were 3-fold serial diluted from 10 µM for 10 concentrations in replicate wells.

In the next test the target is CDK7 (Homo sapiens, UniProt P50613). In words: experiment of inhibiting kinase activity (Caliper mobility shift assay), CDK7. The conditions noted are these: read-out: inhibition rate CDK7. In short, it runs like this:
as §1

The next test has as its target CDK9 (Homo sapiens, UniProt P50750). The test is described as follows: experiment of inhibiting kinase activity (Caliper mobility shift assay), CDK9. The conditions noted are these: at 100 nM; read-out: inhibition rate CDK9. On the procedure: as §2
The inhibitory effects of the compounds on JAK1, JAK2, JAK3, CDK7 and CDK9 kinases were detected by the method of Caliper mobility shift assay. 250 nL of the compound at 100-fold final concentration was transferred to a destination plate 384-well-plate by using a liquid handler Echo 550. A kinase solution at 2.5-fold final concentration was prepared with 1×kinase buffer. 10 µL of the kinase solution with 2.5-fold final concentration was added to compound wells and positive control wells; and 10 µL of 1×kinase buffer was added to negative control wells. The mixture was centrifuged at 1000 rpm for 30 seconds and then incubated at room temperature for 10 minutes. A mixed solution of ATP and kinase substrate at 5/3-fold final concentration was prepared with 1×kinase buffer, and 15 µL of the mixed solution of ATP and substrate at 5/3-fold final concentration was added to start the reaction. The 384-well plate was centrifuged at 1000 rpm for 30 seconds, shaked and mixed evenly, then incubated at room temperature for a corresponding time. 30 µL of stop solution was added to stop the kinase reaction, the mixture was centrifuged at 1000 rpm for 30 seconds, and shaked and mixed evenly. The conversion rate was read by Caliper EZ Reader. The conversion inhibition rate%=(average positive control conversion rate%-sample conversion rate%)/(average positive control conversion rate%-average negative control conversion rate%). Where negative control wells represent the conversion readings of the background well of kinase buffer; and positive control wells represent the conversion readings of wells without compound inhibition. With the log value of concentration as the x axis and the percentage inhibition rate as the y axis, the dose-response curve was fitted by the log (inhibitor) vs. response-variable slope of the analyzing softwar GraphPad Prism 5, and the IC50 values of each compound on enzyme activity were obtained. Calculation formula is as follows: y=Bottom+(Top-Bottom)/(1+10^((LogIC50-x)×hillslope)), where x is logarithm of inhibitor concentration; and Y is % inhibition rate.

In test [2] the target is T1, LRRK2. The test is described as follows: experiment of inhibiting kinase activity, LRRK2. On the procedure: as §2

In general, IC50 refers to the midpoint of a concentration-inhibition curve. The low end stands for inhibition by little substance, the high end for a need for much substance. A word on the inhibition: it is the relative decrease from the control value, in per cent.

T1 sequence (Q5S007 whole entry): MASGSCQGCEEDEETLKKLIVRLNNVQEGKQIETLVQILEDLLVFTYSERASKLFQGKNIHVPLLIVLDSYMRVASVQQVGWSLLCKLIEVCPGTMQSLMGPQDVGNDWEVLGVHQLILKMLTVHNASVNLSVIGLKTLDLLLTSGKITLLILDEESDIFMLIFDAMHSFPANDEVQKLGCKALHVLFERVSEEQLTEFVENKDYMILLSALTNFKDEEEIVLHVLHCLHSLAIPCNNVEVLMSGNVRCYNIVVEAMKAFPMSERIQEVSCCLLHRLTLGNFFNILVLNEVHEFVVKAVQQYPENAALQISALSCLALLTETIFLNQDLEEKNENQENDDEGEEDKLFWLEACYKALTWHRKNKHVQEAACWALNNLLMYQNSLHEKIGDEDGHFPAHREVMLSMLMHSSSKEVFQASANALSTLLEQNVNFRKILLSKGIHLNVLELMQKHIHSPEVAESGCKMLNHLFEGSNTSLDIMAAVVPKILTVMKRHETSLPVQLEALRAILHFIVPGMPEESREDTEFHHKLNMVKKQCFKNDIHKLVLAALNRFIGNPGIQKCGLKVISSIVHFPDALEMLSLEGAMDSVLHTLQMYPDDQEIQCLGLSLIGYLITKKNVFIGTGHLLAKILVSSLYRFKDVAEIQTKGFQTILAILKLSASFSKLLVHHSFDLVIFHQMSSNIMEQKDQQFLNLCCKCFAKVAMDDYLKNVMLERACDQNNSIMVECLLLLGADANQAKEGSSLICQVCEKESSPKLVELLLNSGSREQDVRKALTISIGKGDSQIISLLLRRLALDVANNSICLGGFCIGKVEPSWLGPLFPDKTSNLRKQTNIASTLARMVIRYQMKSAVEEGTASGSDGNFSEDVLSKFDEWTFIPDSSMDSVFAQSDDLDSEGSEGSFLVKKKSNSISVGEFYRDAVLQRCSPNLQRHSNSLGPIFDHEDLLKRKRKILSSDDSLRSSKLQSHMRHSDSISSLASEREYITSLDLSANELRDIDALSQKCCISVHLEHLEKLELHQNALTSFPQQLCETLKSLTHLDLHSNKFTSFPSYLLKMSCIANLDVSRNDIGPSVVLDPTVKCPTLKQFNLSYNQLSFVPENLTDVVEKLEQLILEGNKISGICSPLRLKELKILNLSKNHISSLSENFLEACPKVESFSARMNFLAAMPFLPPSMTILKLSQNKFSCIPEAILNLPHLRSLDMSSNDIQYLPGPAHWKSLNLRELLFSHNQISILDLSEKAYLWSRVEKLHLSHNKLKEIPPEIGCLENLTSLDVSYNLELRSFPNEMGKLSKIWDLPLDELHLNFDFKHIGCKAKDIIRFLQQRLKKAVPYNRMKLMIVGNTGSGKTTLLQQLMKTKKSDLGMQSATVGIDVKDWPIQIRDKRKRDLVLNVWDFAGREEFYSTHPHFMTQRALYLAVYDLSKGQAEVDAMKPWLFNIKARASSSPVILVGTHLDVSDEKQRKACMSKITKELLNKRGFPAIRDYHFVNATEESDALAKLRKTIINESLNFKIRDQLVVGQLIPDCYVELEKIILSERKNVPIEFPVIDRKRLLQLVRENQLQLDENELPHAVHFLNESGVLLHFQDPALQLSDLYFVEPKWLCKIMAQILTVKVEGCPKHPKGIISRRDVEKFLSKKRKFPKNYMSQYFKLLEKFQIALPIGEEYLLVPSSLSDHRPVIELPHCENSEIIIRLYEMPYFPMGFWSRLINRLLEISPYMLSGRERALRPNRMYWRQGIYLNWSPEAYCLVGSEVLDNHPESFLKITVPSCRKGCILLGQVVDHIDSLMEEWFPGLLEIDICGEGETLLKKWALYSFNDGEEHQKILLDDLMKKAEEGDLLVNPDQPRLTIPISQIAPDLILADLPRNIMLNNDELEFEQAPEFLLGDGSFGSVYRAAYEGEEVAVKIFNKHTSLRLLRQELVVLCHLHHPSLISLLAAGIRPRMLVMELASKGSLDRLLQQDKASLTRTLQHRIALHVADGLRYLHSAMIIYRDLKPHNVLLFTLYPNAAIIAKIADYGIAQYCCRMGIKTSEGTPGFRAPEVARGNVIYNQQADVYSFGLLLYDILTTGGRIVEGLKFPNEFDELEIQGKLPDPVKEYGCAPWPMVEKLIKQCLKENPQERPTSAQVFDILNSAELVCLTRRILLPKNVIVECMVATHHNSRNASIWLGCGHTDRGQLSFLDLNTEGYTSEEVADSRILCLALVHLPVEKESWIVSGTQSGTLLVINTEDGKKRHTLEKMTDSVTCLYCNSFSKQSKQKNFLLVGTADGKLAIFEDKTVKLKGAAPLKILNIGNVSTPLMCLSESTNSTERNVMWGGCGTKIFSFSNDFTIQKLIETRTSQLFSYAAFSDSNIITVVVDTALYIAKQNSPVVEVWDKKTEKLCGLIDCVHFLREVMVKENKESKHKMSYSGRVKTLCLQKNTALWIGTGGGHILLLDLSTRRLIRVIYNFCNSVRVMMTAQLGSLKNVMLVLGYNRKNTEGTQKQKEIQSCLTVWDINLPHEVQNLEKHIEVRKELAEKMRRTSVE
Sequence of CDK7 (P50613 whole entry, species assumed): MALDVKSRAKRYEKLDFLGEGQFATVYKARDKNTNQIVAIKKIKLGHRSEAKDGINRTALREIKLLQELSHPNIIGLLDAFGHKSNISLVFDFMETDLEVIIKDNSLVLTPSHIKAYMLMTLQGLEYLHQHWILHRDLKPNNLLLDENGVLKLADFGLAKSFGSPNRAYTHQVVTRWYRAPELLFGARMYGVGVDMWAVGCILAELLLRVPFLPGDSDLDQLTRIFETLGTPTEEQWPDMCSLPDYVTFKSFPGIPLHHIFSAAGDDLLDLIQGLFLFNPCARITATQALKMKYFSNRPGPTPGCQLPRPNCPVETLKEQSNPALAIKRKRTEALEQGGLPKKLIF
Sequence of CDK7 (P51946 whole entry partner, species assumed): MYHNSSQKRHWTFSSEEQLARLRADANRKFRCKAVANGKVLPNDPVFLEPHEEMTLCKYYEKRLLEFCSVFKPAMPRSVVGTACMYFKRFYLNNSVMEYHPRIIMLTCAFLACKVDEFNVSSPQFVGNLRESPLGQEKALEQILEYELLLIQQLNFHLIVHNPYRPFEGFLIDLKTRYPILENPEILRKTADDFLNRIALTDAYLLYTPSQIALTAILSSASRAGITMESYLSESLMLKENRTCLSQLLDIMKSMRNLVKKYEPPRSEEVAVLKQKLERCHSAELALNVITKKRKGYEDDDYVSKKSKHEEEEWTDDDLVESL
Sequence of CDK7 (P51948 whole entry partner, species assumed): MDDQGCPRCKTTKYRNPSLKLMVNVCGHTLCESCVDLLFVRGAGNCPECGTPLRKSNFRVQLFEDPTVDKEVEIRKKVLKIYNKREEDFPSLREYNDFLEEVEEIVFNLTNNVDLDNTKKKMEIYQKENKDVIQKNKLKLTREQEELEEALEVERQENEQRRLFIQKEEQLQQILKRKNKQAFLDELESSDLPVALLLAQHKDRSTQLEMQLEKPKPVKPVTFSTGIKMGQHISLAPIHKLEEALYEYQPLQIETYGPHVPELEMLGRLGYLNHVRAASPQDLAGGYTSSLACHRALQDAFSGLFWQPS
Sequence of JAK2 (O60674 whole entry): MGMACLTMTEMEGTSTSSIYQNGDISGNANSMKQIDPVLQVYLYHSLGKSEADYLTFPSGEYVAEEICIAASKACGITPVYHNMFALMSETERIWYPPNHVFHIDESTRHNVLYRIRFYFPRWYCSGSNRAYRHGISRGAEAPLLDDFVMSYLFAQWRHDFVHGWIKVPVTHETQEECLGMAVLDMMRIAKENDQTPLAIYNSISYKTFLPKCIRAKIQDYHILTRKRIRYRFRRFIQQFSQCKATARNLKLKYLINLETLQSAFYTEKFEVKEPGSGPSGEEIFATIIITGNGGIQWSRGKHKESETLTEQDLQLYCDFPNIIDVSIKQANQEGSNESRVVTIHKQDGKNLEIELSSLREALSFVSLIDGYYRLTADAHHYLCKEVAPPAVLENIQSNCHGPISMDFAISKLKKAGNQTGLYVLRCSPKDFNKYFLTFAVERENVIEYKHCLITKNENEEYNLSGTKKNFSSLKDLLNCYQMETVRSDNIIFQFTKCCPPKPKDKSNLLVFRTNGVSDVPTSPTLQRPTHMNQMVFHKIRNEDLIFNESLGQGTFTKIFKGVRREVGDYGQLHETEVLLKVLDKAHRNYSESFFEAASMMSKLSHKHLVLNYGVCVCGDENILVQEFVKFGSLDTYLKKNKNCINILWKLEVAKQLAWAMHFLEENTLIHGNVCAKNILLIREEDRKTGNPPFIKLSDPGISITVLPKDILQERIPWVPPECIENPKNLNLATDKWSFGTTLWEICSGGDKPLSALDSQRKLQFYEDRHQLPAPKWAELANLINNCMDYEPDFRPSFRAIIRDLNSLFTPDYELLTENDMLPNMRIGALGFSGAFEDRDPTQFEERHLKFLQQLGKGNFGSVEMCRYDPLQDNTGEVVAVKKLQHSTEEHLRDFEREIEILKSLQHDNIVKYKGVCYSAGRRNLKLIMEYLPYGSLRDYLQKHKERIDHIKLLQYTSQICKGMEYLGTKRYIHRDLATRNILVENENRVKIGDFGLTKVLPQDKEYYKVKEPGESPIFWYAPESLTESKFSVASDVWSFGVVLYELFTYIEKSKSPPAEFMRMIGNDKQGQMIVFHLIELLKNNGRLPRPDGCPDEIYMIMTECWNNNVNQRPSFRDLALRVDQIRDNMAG

Compound `COc1ccccc1Nc1nc(Nc2ccc3c(c2)OCCN(C)CCO3)ncc1C(F)(F)F` [Example 95, N^4-(2-methoxyphenyl)-N^2-(4-methyl-3,4,5,6-tetrahydro-2H-benzo[b][1,4,7]dioxazolin-9-yl)-5-(trifluoromethyl)pyrimidin-2,4-diamine] had an IC50 against LRRK2 [1] of under 100 nM.
In the case of `CC(C)S(=O)(=O)c1ccccc1Nc1nc(Nc2ccc3c(c2)OCCOCCN(C)CCO3)nc2[nH]ccc12` [Example 10, N^4-(2-(isopropylsulfonyl)phenyl)-N^2-(7-methyl-2,3,6,7,8,9-hexahydro-5H-benzo[b][1,4, 7]trioxa[10]azacyclododecan-13-yl)-7H-pyrrolo[2,3-d]pyrimidin-2,4-diamine], the inhibition at 0.1 µM on JAK1 is 25 to 39%; at JAK2 (at 100 nM), over 80%; at JAK3 (at 100 nM) it was over 80%; at TYK2, over 80%; on CDK7 (at 100 nM), over 80%; at CDK9 it was 40 to 79%. For the same compound, on LRRK2 [2] (at 100 nM, read-out: inhibition rate LRRK2), the inhibition at 0.1 µM is over 80%. For the same compound, the inhibition at 0.01 µM was over 80% at JAK2 (at 10 nM); 40 to 79% at JAK3 (at 10 nM); 40 to 79% at CDK7 (at 10 nM); over 80% on LRRK2 [2] (at 10 nM, read-out: inhibition rate LRRK2). At LRRK2 [2] (kinase activity assay, Table 3), this compound registered an IC50 of under 50 nM.
`COCc1ccccc1Nc1nc(Nc2ccc3c(c2)OCCN(C)CCOCCO3)ncc1C(F)(F)F` [Example 116, N^4-(2-(methoxymethyl)phenyl)-N^2-(7-methyl-2,3,6,7,8,9-hexahydro-5H-benzo[b][1,4,7]trioxa[10]azacyclododecan-12-yl)-5-(trifluoromethyl)pyrimidin-2,4-diamine] showed an IC50 against LRRK2 [1] of under 100 nM.
As for `CN1CCOCCOc2ccc(Nc3nc(O[C@H]4CC[C@](C)(O)CC4)c4cc[nH]c4n3)cc2OCC1` [Example 87, (1r,4r)-1-methyl-4-((2-((7-methyl-2,3,6,7,8,9-hexahydro-5H-benzo[b][1,4,7]trioxa [10]azacyclododecan-12-yl)amino)-7H-pyrrolo[2,3-d]pyrimidin-4-yl)oxy)cyclohexan-1-ol], at LRRK2 [1], the IC50 was under 100 nM.
On the same count and under the same terms, as for `Cc1cnc(Nc2ccc3c(c2)OCCN(C)CCOCCO3)nc1O[C@H]1CC[C@@](C)(O)CC1` [Example 105, (1s,4s)-1-methyl-4-((5-methyl-2-((7-methyl-2,3,6,7,8,9-hexahydro-5H-benzo[b][1,4, 7]trioxa[10]azacyclododecan-12-yl)amino)pyrimidin-4-yl)oxy)cyclohexan-1-ol], the figure is under 100 nM; as for `CN1CCOCCOc2ccc(Nc3ncc(Cl)c(O[C@H]4CC[C@@](C)(O)CC4)n3)cc2OCC1` [Example 104, (1s,4s)-4-((5-chloro-2-((7-methyl-2,3,6,7,8,9-hexahydro-5H-benzo[b][1,4,7]trioxa[10]azacyclododecan-12-yl)amino)pyrimidin-4-yl)oxy)-1-methylcyclohexan-1-ol], under 100 nM.
Same read-out and setting: as for `CNc1cc(O[C@H]2CC[C@@](C)(O)CC2)nc(Nc2ccc3c(c2)OCCN(C)CCO3)n1` [Example 108, (1s,4s)-1-methyl-4-((2-((4-methyl-3,4,5,6-tetrahydro-2H-benzo[b][1,4,7]dioxazolin-9-yl)amino)-6-(methylamino)pyrimidin-4-yl)oxy)cyclohexan-1-ol], the figure is 500 to 1000 nM; as for `CN1CCOCCOc2ccc(Nc3nc(O[C@H]4CC[C@@](C)(O)CC4)c4ccccc4n3)cc2OCC1` [Example 109, (1s,4s)-1-methyl-4-((2-((7-methyl-2,3,6,7,8,9-hexahydro-5H-benzo[b][1,4,7]trioxa[1 0]azacyclododecan-12-yl)amino)quinazolin-4-yl)oxy)cyclohexan-1-ol], 100 to 500 nM.
